Results from patent publication US20070191490A1, “Withacnistin compounds for treatment of cancer” (priority 2006, published 2007).

How the values were obtained:
A549 tumors [1] = assay: Antitumor activity in nude mouse xenograft model, A549; format: in vivo; details: nude mice, 1 mg/kg/day i.p., Wit = withacnistin mixture
Excerpt: (§1) Antitumor activity in the nude mouse tumor xenograft model. Nude mice (Charles River, Wilmington, Mass., USA) were maintained in accordance with the Institutional Animal Care and Use Committee (IACUC) procedures and guidelines. A549 cells were harvested, resuspended in PBS, and injected subcutaneously (s.c.) into the right and left flank (1×10^7 cells per flank) of 8-week-old female nude mice as reported previously (Blaskovich, M. A. et al. Cancer Res., 2003, 63:1270-1279). When tumors reached about 150 mm^3, animals were randomized (four animals per group; two tumors per animal) and dosed intraperitoneally (i.p.) either with cucurbitacin analogs (0.5 or 1 mg/kg/day, i.p.) in 20% DMSO in water or with an equal volume of vehicle control. The tumor volumes were determined by measuring the length (l) and the width (w) and calculating the volume (V=lw^2/2) as described previously (Blaskovich, M. A. et al. Cancer Res., 2003, 63:1270-1279). Statistical significance between control and treated animals were evaluated by using Student's t-test.
(§2) To determine the ability of the cucurbitacin analogs and withacnistin to inhibit tumor growth in vivo, the antitumor activity of the cucurbitacin analogs and withacnistin against both A549 and v-Src/3T3 tumors in a nude mouse xenograft model was evaluated. When the tumors became palpable (at volumes of approximately 100-150 mm^3), the mice were treated either with vehicle control or 1 mg/kg/day of the cucurbitacins or the withacnistin mixture. Tumor volumes were monitored by caliper measurement as previously described (Blaskovich, M. A. et al. Cancer Res., 2003, 63:1270-1279) and under Materials and Methods.

v-Src/3T3 tumors = assay: Antitumor activity in nude mouse xenograft model, v-Src/3T3; format: in vivo; details: v-Src/3T3 xenograft, nude mice, 1 mg/kg/day i.p.; Wit = withacnistin mixture
Excerpt: as §1, §2
Withacnistin inhibited 57% of tumor growth while Cuc I, B, and E inhibited 45, 40, and 42% of tumor growth, respectively (FIG. 3 and Table 2).

STAT3 = assay: Total STAT3 levels (STAT3 immunoprecipitation / immunoblot); format: cell-based, human; details: A549 cells
Procedure: STAT3 immunoprecipitation. A549 cells were treated for 4 hour with vehicle or the withacnistin mixture, then lysed in 150 mM HEPES, pH 7.5, 150 mM NaCl, 1 mM EDTA, 0.5% NP-40, 10% glycerol, 5 mM NaF, 1 mM DTT, 1 mM PMSF, 2 mM sodium orthovanadate, and 5 μg/ml leupeptin. Sample lysates were collected and cleared, then 500 μg of lysate was immunoprecipitated with 50 ng STAT3 antibody overnight at 4° C., then rocked with 25 μl Protein A/G PLUS agarose (Santa Cruz Biotechnology) for 1 hour at 4° C. Samples were washed four times with lysis buffer, then boiled in 2×SDS-PAGE sample buffer and run on 10% SDS-PAGE gel. Protein was transferred to nitrocellulose then blotted as above for both phospho-specific STAT3 and STAT3.
As further support of the specific antiphosphotyrosine STAT3, but not antiphosphotyrosine JAK2, activity of withacnistin, A549 cells, as well as two breast carcinoma cell lines (MDA-MB-435 and MDA-MB-468) that also express constitutively activated JAK2 and STAT3, were treated with the withacnistin mixture at various concentrations, and determined IC50 values of inhibition of STAT3 and JAK2 activation. […] In all three cell lines, JAK2 activation was not inhibited at withacnistin concentrations as high as 10 μM. […] Thus, in all three cell lines, withacnistin (Wit) inhibits specifically STAT3 but not JAK2 activation and Cuc A inhibits JAK2 but not STAT3 activation whereas Cuc I inhibits the activation of both STAT3 and JAK2.

phosphotyrosine STAT3 = assay: P-STAT3 immunohistochemistry of A549 tumor sections; format: in vivo, nude mice; details: 1 mg/kg/day; for P-STAT3 positive cells: termination day, control 76.5±1.4%
Procedure: P-STAT3 immunohistochemistry. On the termination day of the A549 antitumor experiment, tumors were extracted and fixed in 10% neutral-buffered formalin for 6 hours. After fixation, the tissue samples were processed into paraffin blocks. Tissue sections (5 μm) were dewaxed with xylene and rehydrated through descending alcohol to deionized water and then placed in PBS. Antigens were retrieved briefly with citrate buffer, pH 6.0, in a microwave followed by a mild trypsinization (0.025% trypsin in 50 mM Tris buffer containing 0.05% calcium chloride, pH 7.6). From this point, all steps were carried out in a DAKO Autostainer (DakoCytomation California, Inc., Carpinteria, Calif., USA). Sections were rinsed three times in TBS-Tween buffer, pH 7.6, then endogenous peroxidases were quenched with 3% hydrogen peroxide and nonspecific binding with 2% normal goat serum in 3% BSA/PBS. Sections then were incubated overnight with 1:400 phospho-STAT3 (Cell Signaling Technologies) at 4° C. in a humidified chamber. Detection was performed using the Elite ABC Rabbit kit (Vector Laboratories) and DAB chromogen (DakoCytomation California, Inc.) according to the manufacturer's instructions. Slides were counterstained for 20-30 seconds with modified Mayer's hematoxylin, dehydrated through ascending alcohol, cleared, and mounted with resinous mounting medium. Quantification was performed by counting both the phospho-STAT3-positive and -negative cells on slides representative of eight tumors and significance was determined by Student's t-test.
(§3) To determine whether phosphotyrosine STAT3 is targeted by withacnistin in vivo, and to determine if the results seen in cell culture concerning induction of apoptosis were occurring in tumors from animals treated with withacnistin, on the termination day of the A549 antitumor experiment, tumors from animals treated with Cuc A, Cuc I, and the withacnistin mixture, as well as vehicle control, were extracted and fixed in 10% neutral-buffered formalin and then processed into paraffin blocks for tissue sectioning. These tissue sections were stained separately with either TUNEL for determination of apoptosis, or phosphotyrosine STAT3 to determine if the signaling protein is inhibited in the tumors.

A549 tumors [2] = assay: TUNEL immunohistochemistry of A549 tumor sections; format: in vivo, nude mice; details: 1 mg/kg/day, control 0.4±0.1%
Procedure: TUNEL immunohistochemistry. Tumors were harvested, […], and dewaxed as described for P-STAT3 immunohistochemistry. Tissue sections (5 μm) were digested for 10 minutes with 25 μg/ml proteinase K in PBS and then washed thoroughly. Peroxidases were quenched with 3% hydrogen peroxide in PBS and washed. Sections were equilibrated with equilibration buffer, then incubated in 30% TdT enzymes/70% digoxigenin nucleotidyl reaction buffer for 1 hour at 37° C. in a humidified chamber. The labeling reaction was stopped in stop/wash buffer with moderate shaking. Slides then were placed on the Dako Autostainer and incubated with antidigoxigenin-peroxidase (DakoCytomation California, Inc.) for 30 minutes using DAB substrate. Sections were counterstained with methyl green (Vector Laboratories), dehydrated through ascending alcohol, cleared, and mounted with resinous mounting medium. The quantification was performed by counting both the TUNEL-positive and -negative cells on slides representative of eight tumors and significance was determined by Student's t-test.
as §3

Row | Structure (SMILES) | % Inhibition of tumor growth (A549 tumors [1]) [%] | % Inhibition of tumor growth (v-Src/3T3 tumors) [%] | total STAT3 levels (STAT3; 10 μM, 4 hours) | inhibition of phosphotyrosine-STAT3 compared to vehicle control (phosphotyrosine STAT3) | P-STAT3 positive cells (phosphotyrosine STAT3) [%] | TUNEL-positive cells (A549 tumors [2]) [%] | total STAT3 levels (STAT3; by 24 hours, data not shown)
1 | CC(=O)OC(C)(C)/C=C/C(=O)[C@](C)(O)[C@H]1[C@H](O)C[C@@]2(C)[C@@H]3CC=C4[C@@H](C[C@H](O)C(=O)C4(C)C)[C@]3(CO)C(=O)C[C@]12C [Cuc A, cucurbitacin A] | 11.1 | 16 | does not affect | no inhibition | 80.8±1.8 | 0.3±0.2 | –
2 | CC(=O)OC[C@]12CC[C@H]3[C@@H](C[C@H]4O[C@]45[C@@H](O)C=CC(=O)[C@]35C)[C@@H]1CC[C@@H]2[C@H](C)[C@H]1CC(C)=C(C)C(=O)O1 [withacnistin] | 73.1 | 57 | without affecting | 70.5% | 22.6±7.3 | 14.3±2.7 | suppressed
3 | CC(C)(O)/C=C/C(=O)[C@](C)(O)[C@H]1[C@H](O)C[C@@]2(C)[C@@H]3CC=C4[C@@H](C=C(O)C(=O)C4(C)C)[C@]3(C)C(=O)C[C@]12C [Cuc I, cucurbitacin I] | 55.4 | 45 | does not affect | 28.5% | 54.7±4.5 | 10.5±3.0 | –
